Literature values in US9289440B2, “Intravenous formulation with water-soluble cocrystals of acetylsalicylic acid and theanine” (THEAPRIN PHARMACEUTICALS INC., priority 2009, dated 2016).
“Also recorded” adds a separate entry of the source.

Settings: FDA Reports 2006-2008, single patient reports

CC(=O)Oc1ccccc1C(=O)O [Aspegic, lysine acetylsalicylate]
side effect after drug was administered: cardio-respiratory arrest and ventricular fibrillation and died; also recorded: angina pectoris and recovered
